Patent US20240025862A1, “SUBSTITUTED N-PHENYLURACILS AND SALTS THEREOF, AND USE THEREOF AS HERBICIDAL ACTIVE SUBSTANCES” (Bayer Aktiengesellschaft, priority 2020, published 2024)

Experiments:
Type in all cases: in vivo
[1] = test system: Alopecurus myosuroides (ALOMY); assay: Post-emergence herbicidal action, greenhouse pot test (also comparative test C); details: rated visually after about 3 weeks vs untreated controls, 100% = plants have died
Outline: (§1)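 Greenhouse pot plants in sandy loam were sprayed post-emergence at the one-leaf stage (2–3 weeks after sowing) with WP or EC formulations plus 0.5% additive at 600 l/ha water. Activity was rated visually after about 3 weeks versus untreated controls (100% = dead, 0% = like control); rates were 20 g/ha or less, and 5 g/ha or less in the comparative test.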

[2] = test system: Matricaria inodora (MATIN); assay: as above
Outline: as §1

Setaria viridis (SETVI) = assay: as above
Outline: as §1

[3] = test system: Echinochloa crus-galli (ECHCG); assay: as above
Outline: as §1

Avena fatua (AVEFA) = assay: Post-emergence herbicidal action, greenhouse pot test; details: 20 g/ha, rated visually after about 3 weeks vs untreated controls, 100% = plants have died
Outline: (§2)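 Activity was scored by eye about 3 weeks after treatment against untreated plants, where 100% means dead plants and 0% means no difference. Plants at the one-leaf stage received a foliar spray of WP or EC formulations in water plus 0.5% additive (600 l/ha, up to 20 g/ha). Plants were grown in sandy loam pots in a greenhouse for 2–3 weeks before spraying.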

[4] = test system: Polygonum convolvulus (POLCO); assay: as above; details: dosage 20 g/ha
Outline: as §2

Viola tricolor (VIOTR) = assay: as above
Outline: as §2

[5] = test system: Abutilon theophrasti (ABUTH); assay: as above; details: rated visually after about 3 weeks vs untreated controls, 100% = plants have died
Outline: as §2

Lolium rigidum (LOLRI) = assay: as above; details: dosage 20 g/ha
Outline: as §2

[6] = test system: Pharbitis purpurea (PHBPU); assay: as above
Outline: as §2

[7] = test system: Amaranthus retroflexus (AMARE); assay: as above; details: rated visually after about 3 weeks vs untreated controls, 100% = plants have died
Outline: as §2

Veronica persica (VERPE) = assay: as above
Outline: as §2

Oryza sativa (ORYSA) = assay: Post-emergence crop plant compatibility, greenhouse pot test (also comparative test C); details: for Post-emergence action against ORYSA (crop plant compatibility): vs untreated controls
Outline: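 Visual damage versus untreated plants (0% = like control, 100% = plants died) was scored about 3 weeks after a post-emergence spray in greenhouse pots. Treatment: one-leaf stage, WP or EC in water at 600 l/ha with 0.5% additive; a/b/c mark different dosages on the same crop.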

[8] = test system: Triticum aestivum (TRZAS); assay: Post-emergence crop plant compatibility, greenhouse pot test; details: vs untreated controls
Outline: (§3)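 Greenhouse pot test; post-emergence foliar spray at one-leaf stage, WP or EC in water + 0.5% additive, 600 l/ha. Visual rating after ~3 wk, % relative to untreated (0–100%).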

Zea mays (ZEAMX) = assay: as above; details: 1.25 g/ha, vs untreated controls
Outline: as §3

Glycine max (GLXMA) = assay: as above; details: 1.25 g/ha
Outline: as §3

Post-emergence action against ORYSA (crop plant compatibility) (Oryza sativa (ORYSA); 1.25 g/ha): 0%
Post-emergence action against ORYSA (crop plant compatibility) (Oryza sativa (ORYSA); 5 g/ha): 10%
Post-emergence action against ORYSA in % (Oryza sativa (ORYSA); 20 g/ha, crop plant compatibility): 20%
Post-emergence action against TRZAS (crop plant compatibility) ([8]; 1.25 g/ha): 10%
Post-emergence action against TRZAS (crop plant compatibility) ([8]; 5 g/ha): 10%
Post-emergence action against ZEAMX (crop plant compatibility) (Zea mays (ZEAMX)): 10%
Post-emergence action against GLXMA in % (Glycine max (GLXMA)): 20%
SMILES: Cn1c(C(F)(F)F)cc(=O)n(-c2cc(Oc3ccccc3OCC(=O)OCc3ccccn3)c([N+](=O)[O-])cc2F)c1=O [I.6-276]
Post-emergence action at 5 g/ha against ALOMY in % ([1]; 5 g/ha): 80%
Post-emergence action at 20 g/ha against ALOMY in % ([1]; 20 g/ha): 100%
Post-emergence action against MATIN in % ([2]; dosage 5 g/ha): 100%
Post-emergence action against MATIN in % ([2]; dosage 20 g/ha): 100%
Post-emergence action against SETVI (Setaria viridis (SETVI); 20 g/ha): 100%
Post-emergence action against SETVI in % (Setaria viridis (SETVI); dosage 1.25 g/ha): 100%
Post-emergence action against SETVI in % (Setaria viridis (SETVI); dosage 5 g/ha): 100%
Post-emergence action against ECHCG in % ([3]; dosage 5 g/ha): 90%
Post-emergence action against ECHCG in % ([3]; dosage 20 g/ha): 100%
Post-emergence action at 20 g/ha against AVEFA in % (Avena fatua (AVEFA)): 80%
Post-emergence action against POLCO in % [4]: 100%
Post-emergence action against VIOTR (Viola tricolor (VIOTR); 1.25 g/ha): 100%
Post-emergence action against VIOTR (Viola tricolor (VIOTR); 5 g/ha): 100%
Post-emergence action against VIOTR (Viola tricolor (VIOTR); 20 g/ha): 100%
Post-emergence action at 1.25 g/ha against ABUTH in % ([5]; 1.25 g/ha): 100%
Post-emergence action at 5 g/ha against ABUTH in % ([5]; 5 g/ha): 100%
Post-emergence action at 20 g/ha against ABUTH in % ([5]; 20 g/ha): 100%
Post-emergence action against LOLRI in % (Lolium rigidum (LOLRI)): 90%
Post-emergence action against PHBPU in % ([6]; dosage 1.25 g/ha): 100%
Post-emergence action against PHBPU in % ([6]; dosage 5 g/ha): 100%
Post-emergence action against PHBPU in % ([6]; dosage 20 g/ha): 100%
Post-emergence action at 1.25 g/ha against AMARE in % ([7]; 1.25 g/ha): 100%
Post-emergence action at 5 g/ha against AMARE in % ([7]; 5 g/ha): 100%
Post-emergence action at 20 g/ha against AMARE in % ([7]; 20 g/ha): 100%
Post-emergence action against VERPE (Veronica persica (VERPE); 5 g/ha): 100%
Post-emergence action against VERPE (Veronica persica (VERPE); 20 g/ha): 100%
